Results reported in patent US9931355B2, “Combination of compounds derived from gallic acid for the treatment of cancer” (PONTIFICLA UNIVERSIDAD JAVERIANA, priority 2012, dated 2018).
Values after ≈ are worked out from the molar mass of the structure shown.

Key:
Type in all cases: cell-based
[1] = system: K562 (human erythroleukemia); experiment: MTT cytotoxicity assay on K562 cells; conditions: 48 hours, read-out: 50% inhibitory concentration
Procedure: (§1) The human cell lines used were K562 (human erythroleukemia) MCF7 (human breast cancer) and A375 (human melanoma). The murine cell lines used were Mel Rel (murine melanoma) and 4T1 (murine mammary cancer). […] The cell line 4T1 was also maintained with 1 mM of sodium pyruvate (Eurobio, Toulouse, FR). For the assays on normal cells, human mononucleocytes from the venous peripheral blood of healthy donors (PBMC) were obtained, and were separated by centrifugation using a Ficoll-Hypaque density gradient (GE Healthcare Bio-Sciences AB, Bjorkgatan, Uppsala, Sweden). The cytotoxic effect of the combination of the invention on tumor cells and normal cells was evaluated by direct microscopic observation and via assays with MTT (Sigma, Saint Louis Mo., USA). […] The formazan crystals were dissolved with dimethyl sulfoxide (DMSO) and the optical density was measured at 540 nm in a Multiskan MCC/340 machine (Labsystems, Thermo Fisher Scientific, Waltham, USA). The cytotoxic effect of FA-CS was evaluated with MTT on various tumoral cell lines. The […] value on the various cell lines was calculated using the Minitab software. […]

Fibroblasts = experiment: MTT cytotoxicity assay on fibroblasts; conditions: Fibroblast, read-out: 50% inhibitory concentration
A375 (human melanoma) = experiment: MTT cytotoxicity assay on A375 cells; conditions: A-375, 48 hours, read-out: 50% inhibitory concentration
Procedure: The human cell lines used were K562 (human erythroleukemia) MCF7 (human breast cancer) and A375 (human melanoma). The murine cell lines used were Mel Rel (murine melanoma) and 4T1 (murine mammary cancer). These cells were maintained in RPMI 1640 medium supplemented with 10% fetal calf serum, 2 mM of L-glutamine, 100 U of penicillin, 100 μg/ml of streptomycin and 0.01 M of HEPES (Eurobio, Toulouse, FR) at 37° C. with 5% CO2 under a humid atmosphere. The cell line 4T1 was also maintained with 1 mM of sodium pyruvate (Eurobio, Toulouse, FR). For the assays on normal cells, human mononucleocytes from the venous peripheral blood of healthy donors (PBMC) were obtained, and were separated by centrifugation using a Ficoll-Hypaque density gradient (GE Healthcare Bio-Sciences AB, Bjorkgatan, Uppsala, Sweden).
The cytotoxic effect of the combination of the invention on tumor cells and normal cells was evaluated by direct microscopic observation and via assays with MTT (Sigma, Saint Louis Mo., USA). […] The formazan crystals were dissolved with dimethyl sulfoxide (DMSO) and the optical density was measured at 540 nm in a Multiskan MCC/340 machine (Labsystems, Thermo Fisher Scientific, Waltham, USA).
The cytotoxic effect of FA-CS was evaluated with MTT on various tumoral cell lines. The […] value on the various cell lines was calculated using the Minitab software. […]

[2] = system: 4T1 (murine mammary cancer); experiment: MTT cytotoxicity assay on 4T1 cells; conditions: Mus musculus, 48 hours, read-out: 50% inhibitory concentration
Procedure: as §1

[3] = system: MCF7 (human breast cancer); experiment: MTT cytotoxicity assay on MCF7 cells; conditions: 48 hours, read-out: 50% inhibitory concentration
Procedure: as §1

Structure (SMILES) | IC50 [1] | IC50 (Fibroblasts) | IC50 (A375 (human melanoma)) | IC50 [2] | IC50 [3]
COc1cccc2c1C(=O)c1c(O)c3c(c(O)c1C2=O)C[C@@](O)(C(=O)CO)C[C@@H]3O[C@H]1C[C@H](N)[C@H](O)[C@H](C)O1 [Doxorubicin] | 0.2 ± 0.1 µg/mL | 0.4 ± 0.1 µg/mL (≈ 0.736 µM) | 0.02 ± 0.1 µg/mL | 0.5 ± 0.1 µg/mL | 
O=C(O)c1cc(O)c(O)c(O)c1 [Gallic acid] | 18.2 ± 0.1 µg/mL |  |  | 96.2 µg/mL | 4.07 ± 0.04 µg/mL
